This is an account of results in patent US20240246968A1, “SMALL MOLECULE INHIBITORS OF KRAS G12C MUTANT” (Merck Sharp & Dohme LLC, priority 2021, published 2024).

SMILES strings stand for the structures.

One assay concerns MIA PaCa-2 cells. The assay is described as follows: Growth inhibition activity on KRAS-G12C mutant cell line (MIA PaCa-2), CellTiter-Glo 3D. As to conditions: MIA PaCa-2, 3-day culture with compound. In kind it is cell-based, human. The procedure:
MIA PaCa-2 cells (given by Sumitomo Dainippon Pharma Co., Ltd.), which are a KRAS-G12C mutant human pancreas cancer cell line, were suspended in a 10% fetal bovine serum-containing RPMI1640 medium (manufactured by Fujifilm Wako Pure Chemical Corporation.). The cell suspension was seeded into each well of a 384-well U bottom microplate and cultured in an incubator containing 5% CO2 gas at 37° C. for 1 day. The compounds obtained in the “Preparation of Compounds” section were used as test compounds and were dissolved in DMSO, respectively, and each test compound was diluted with DMSO to give a concentration 500 times the final concentration. The resultant solution of the test compound in DMSO was diluted with the medium used for suspending cells and added to each well of the cell-culture plate to give a DMSO final concentration of 0.2%, followed by culture in an incubator containing 5% CO2 gas at 37° C. for another 3 days. The cell count after 3-day culture in the presence of the test compound was measured using CellTiter-Glo 3D Reagent (manufactured by Promega Corporation). All wells were added with CellTiter-Glo 3D Reagent and mixed for 10 minutes. 30 minutes after mixing, luminescence was measured by a plate reader. The growth inhibition rate was calculated from the following equation, and the concentration of the test compound at which 50/o inhibition was achieved (IC50 (nM)) was determined. The following tables show the results.
[formula] • T: the emission intensity in a well into which a test compound was added. • C: the emission intensity in a well into which a test compound was not added.

For assay [1], the target named is Gppcp-bound recombinant K-Ras4B G12C mutant protein (amino acids 1-169, C51S/C80L/C118S) (Homo sapiens, UniProt P01116, C118S/C51S/C80L/G12C). The assay is described as follows: KRASG12C binding assay (LC-MS, compound binding rate). As to conditions: test compound final concentration 0.5 μM, 25° C., 1 hour. The procedure:
As test compounds for the KRASG12C binding assay, the compounds obtained in the “Preparation of Compounds” section were used. Sample solutions each containing a test compound were prepared in the form of a 10 mM DMSO solution.
Gppcp-bound recombinant K-Ras4B G12C mutant protein (amino acids 1-169, C51S/C80L/C118S, SEQ ID NO:1) was diluted with a buffer (1×TBS, 0.1 mM TCEP, 0.25 mM MgCl2, 50 μM Gppcp) to prepare a 50 nM protein solution. K-Ras4B is the major splicing variant of K-Ras. Amino acid sequence of residues 1 to 150 including the compounds' binding region of K-Ras4B is exactly same as that of K-Ras4A, the other splicing variant (Oncotarget. 2016 Jul. 19; 7(29): 46717-46733). A sample solution containing 10 mM test compound was diluted ten-fold with DMSO to make a 1 mM sample solution, and then diluted twenty-fold with DMSO to make a 50 μM sample solution. 1 μL of a 50 μM sample solution was added to 100 μL of a 50 nM protein solution to adjust the final concentration of a test compound to be 0.5 μM in the mixture. The mixtures were stored in an incubator at 25° C. for 1 hour, and 10 μL of a 1×TBS solution containing 2% formic acid was added to stop the reaction, followed by LC-MS measurement. LC-MS measurement was performed using Xevo G2-S Q-Tof manufactured by Waters, and reverse-phase chromatography was performed with a desalting column. A mass spectrum of positive ions was obtained by electrospray. For a mass spectrum, a spectrum of polyvalent ions was collectively converted to a molecular weight by using OpenLynx software by the MaxEnt technique, and a compound binding rate was calculated from the ratio of the signal intensity of a peak that corresponds to the molecular weight of the protein to the signal intensity of a peak that corresponds to the molecular weight of the protein conjugated with the compound.
The binding assay of the test compounds was conducted at a final concentration of 0.5 μM. A binding rate of 80% or more is rated “A”, a binding rate of 60% or more and less than 80% is rated “B”, a binding rate of 40% or more and less than 60% is rated “C”, a binding rate of 20% or more and less than 40% is rated “D”, and a binding rate of less than 20% is rated “E”. N.D.=not determined. Binding rate % is the ratio of KRAS signal intensity at the molecular weight of one molecule adduct to the sum of all the KRAS signal intensity (unbound form and adducts) in mass spectrum. Thus, binding rate 100% means that only the one molecule adduct was observed without any unbound KRAS. The following tables show the results.

The target of assay [2] is T1, interaction between recombinant K-Ras4B G12C mutant protein and cRAF RAS-binding domain (cRAF-RBD) (Homo sapiens, UniProt P01116, G12C).
T1 construct: made in house; host or cells: E. coli
The assay is described as follows: Inhibitory activity on interaction between KRAS G12C and cRAF (Alpha technology). In kind it is biochemical. Particulars: GMPPNP-bound KRAS G12C incubated with compound at 25° C. for 1 hour, then cRAF-RBD; Alpha signal. The procedure:
Interaction between recombinant K-Ras4B G12C mutant protein (amino acids 1-169, SEQ ID NO:2) and cRAF RAS-binding domain (cRAF-RBD, amino acids 50-132, Jena Biosciences GmbH) was measured using Alpha technology (PerkinElmer Inc.).
Recombinant KRAS G12C protein with an N-terminal His-tag was expressed in E. coli and purified by affinity chromatography. To prepare GTP-bound form and GDP-bound form of KRAS G12C protein. 50 μM KRAS G12C protein was incubated with 1 mM GMPPNP (Guanosine-5′-[(β,γ)-imido]triphosphate. Tetralithium salt)(Jena Bioscience GmbH) and 1 mM GDP, respectively, in a loading buffer (20 mM Tris-HCl (pH 7.5), 50 mM NaCl, 1 mM DTT and 2.5 mM EDTA) for 1 hour on ice. After the incubation, MgCl2 was added to a final concentration of 10 mM, followed by incubation at room temperature for 30 minutes. The mixture was allowed to pass through a NAP-5 column to remove free nucleotides and purified, and the resultant nucleotide-bound KRAS G12C protein was used for compound evaluation.
For the measurement of the inhibitory activity of compounds on interaction between KRAS G12C and cRAF-RBD, GMPPNP-bound KRAS G12C protein was incubated with various concentrations of compound in a reaction buffer (20 mM Tris-HCl (pH 7.5), 100 mM NaCl, 1 mM MgCl2, 1 mM TCEP. 0.1% Tween 20) at 25° C. for 1 hour. After the incubation, recombinant cRAF-RBD and Alpha detection reagents were added and incubated at room temperature for 1.5 hours for binding. Interaction of KRAS G12C and cRAF-RBD was monitored by measuring Alpha signal. Inhibition % was calculated using the signal from the reaction without test compound (DMSO control) as 0% inhibition and the signal from the reaction using GDP-bound KRAS G12C in place of GMPPNP-bound KRAS G12C as 100% inhibition. IC50 values were calculated from dose titration curve using curve fitting by XLfit software (IDBS). The following tables show the results.

By IC50 is commonly meant the concentration at which inhibition is half-maximal. On to `Cc1nc2cc(-c3cccn4c(C(=O)c5cc(F)c(NC(=O)/C=C/CN[C@@H]6CCC[C@@H](F)C6)c(F)c5)ccc34)c(C(F)(F)F)cc2n1C` (racemic) [Example 90, (E)-N-(4-(8-(1,2-dimethyl-6-(trifluoromethyl)-1H-benzo[d]imidazol-5-yl)indolizine-3-carbonyl-2,6-difluorophenyl)-4-(((1R,3R)-3-fluorocyclohexyl)amino)but-2-enamide and (E)-N-(4-(8-(1,2-dimethyl-6-(trifluoromethyl)-1H-benzo[d]imidazol-5-yl)indolizine-3-carbonyl)-2,6-difluorophenyl)-4-(((1S,3S)-3-fluorocyclohexyl)amino)but-2-enamide], for which the half-maximal inhibitory concentration (IC50) with MIA PaCa-2 cells (Homo sapiens, MIA PaCa-2, 72 h) turned out to be 200 nM; in assay [2], 97 nM. The binding rate entry in assay [1] is on record as “A (A binding rate of 80% or more is rated “A”)”.
With `Cc1nc2cc(-c3cccn4c(C(=O)c5cc(F)c(NC(=O)/C=C/CN[C@@H]6CCC[C@H](F)C6)c(F)c5)ccc34)c(C(F)(F)F)cc2n1C` (racemic) [Example 94, (E)-N-(4-(8-(1,2-dimethyl-6-(trifluoromethyl)-1H-benzo[d]imidazol-5-yl)indolizine-3-carbonyl)-2,6-difluorophenyl)-4-(((1R,3S)-3-fluorocyclohexyl)amino)but-2-enamide and (E)-N-(4-(8-(1,2-dimethyl-6-(trifluoromethyl)-1H-benzo[d]imidazol-5-yl)indolizine-3-carbonyl)-2,6-difluorophenyl-4-(((1S,3R)-3-fluorocyclohexyl)amino)but-2-enamide], the IC50 came out at 280 nM with MIA PaCa-2 cells (Homo sapiens, MIA PaCa-2, 72 h) and 83 nM in assay [2]. In addition, in assay [1], the binding rate result is “A (A binding rate of 80% or more is rated “A”)”.
Take `CO[C@H]1CC[C@H](NC/C=C/C(=O)Nc2c(F)cc(C(=O)c3ccc4c(-c5c(C)cc6c(ncn6C)c5Cl)cccn34)cc2F)CC1` (single isomer, unassigned) [Example 12-1, (E)-N-(4-(8-(4-chloro-1,6-dimethyl-1H-benzo[d]imidazol-5-yl)indolizine-3-carbonyl)-2,6-difluorophenyl)-4-(((1r,4r)-4-methoxycyclohexyl)amino)but-2-enamide]: the IC50 with MIA PaCa-2 cells stood at 79 nM; in assay [2] it was 29 nM. Moreover, in assay [1], the binding rate entry was “A (A binding rate of 80% or more is rated “A”)”.
As for `CO[C@H]1CC[C@H](NC/C=C/C(=O)Nc2c(F)cc(C(=O)c3ccc4c(-c5c(C)cc6c(ncn6C)c5Cl)cccn34)cc2F)CC1` (single isomer, unassigned) [Example 12-2, (E)-N-(4-(8-(4-chloro-1,6-dimethyl-1H-benzo[d]imidazol-5-yl)indolizine-3-carbonyl)-2,6-difluorophenyl)-4-(((1r,4r)-4-methoxycyclohexyl)amino)but-2-enamide], the values for the IC50 (with MIA PaCa-2 cells; in assay [2]) were 270 nM and 160 nM, respectively. Also, in assay [1], the binding rate result was “B (a binding rate of 60% or more and less than 80% is rated “B”)”.
On to `Cc1cc2c(ncn2C)c(Cl)c1-c1cccn2c(C(=O)c3cc(F)c(NC(=O)/C=C/CNC(C)(C)C)c(F)c3)ccc12` (single isomer, unassigned) [Example 13-1, (E)-4-(tert-butylamino)-N-(4-(8-(4-chloro-1,6-dimethyl-1H-benzo[d]imidazol-5-yl)indolizine-3-carbonyl)-2,6-difluorophenyl)but-2-enamide], for which the IC50 in the assay on MIA PaCa-2 cells came to 32 nM; in assay [2], 46 nM. The binding rate entry in assay [1] was “A (A binding rate of 80% or more is rated “A”)”.
For `Cc1cc2c(ncn2C)c(Cl)c1-c1cccn2c(C(=O)c3cc(F)c(NC(=O)/C=C/CNC(C)(C)C)c(F)c3)ccc12` (single isomer, unassigned) [Example 13-2, (E)-4-(tert-butylamino)-N-(4-(8-(4-chloro-1,6-dimethyl-1H-benzo[d]imidazol-5-yl)indolizine-3-carbonyl)-2,6-difluorophenyl)but-2-enamide], in that order: 220 nM, 320 nM and “A (A binding rate of 80% or more is rated “A”)”.
For the molecule `COc1cc2c(ncn2C)c(Cl)c1-c1cccn2c(C(=O)c3cc(F)c(NC(=O)/C=C/CNC(C)(C)C)c(F)c3)ccc12` (single isomer, unassigned) [Example 14-1, (E)-4-(tert-butylamino)-N-(4-(8-(4-chloro-6-methoxy-1-methyl-1H-benzo[d]imidazol-5-yl)indolizine-3-carbonyl)-2,6-difluorophenyl)but-2-enamide], the concentration for half-maximal inhibition (IC50) in the assay with MIA PaCa-2 cells (Homo sapiens, MIA PaCa-2, 72 h) worked out at 28 nM; in assay [2], 57 nM. For the same molecule, the binding rate entry in assay [1] was “A (A binding rate of 80% or more is rated “A”)”.
Regarding `COc1c(-c2cc(F)cn3c(C(=O)c4cc(F)c(NC(=O)/C=C/CNC5(C)CC5)c(F)c4)cnc23)c(C(F)(F)F)cc2c1nc(C)n2C` (single isomer, unassigned) [Example 112-1, (E)-N-(2,6-difluoro-4-(6-fluoro-8-(4-methoxy-1,2-dimethyl-6-(trifluoromethyl)-1H-benzo[d]imidazol-5-yl)imidazo[1,2-a]pyridine-3-carbonyl)phenyl)-4-((1-methylcyclopropyl)amino)but-2-enamide], the values for the IC50 (in the assay with MIA PaCa-2 cells; in assay [2]) were 42.6 nM and 20.2 nM, respectively.
